Test results taken from patent US11160871B2, “SSTR-targeted conjugates and particles and formulations thereof” (TARVEDA THERAPEUTICS, INC., priority 2015, dated 2021).
Read-outs that look alike come from different tables or passages of the source. Positions of bridges follow the written chain, without caps; N, C: chain ends. Non-standard residues stand in square brackets, D forms with d. Residues, ends and D or L forms follow the SMILES beside them. *: point of attachment. NH(CH2)2SS(DM1) = COc1cc2cc(c1Cl)N(C)C(=O)C[C@H](OC(=O)[C@H](C)N(C)C(=O)CCSSCCN*)[C@]1(C)O[C@H]1[C@H](C)[C@@H]1C[C@@](O)(NC(=O)O1)[C@H](OC)/C=C/C=C(\C)C2; X1 = COc1cc2cc(c1Cl)N(C)C(=O)C[C@H](OC(=O)[C@H](C)N(C)C(=O)CCS*)[C@]1(C)O[C@H]1[C@H](C)[C@@H]1C[C@@](O)(NC(=O)O1)[C@H](OC)/C=C/C=C(\C)C2; Thr(ol) = C[C@@H](O)[C@H](N)CO

How the values were obtained:
[1] = test system: NCI-H524 human small cell lung cancer cells; test: cells; assay type: cell-based
Description: Conjugates of the present invention were assessed in an in vitro assay evaluating inhibition of cell proliferation. NCI-H524 (ATCC) human small cell lung cancer cells were plated in 96 well, V-bottomed plates (Costar) at a concentration of 5,000 cells/well. 24 hours later, cells were treated with either conjugate for 2 hours and further incubated 70 hours, or for octreotide competition experiments, treated with 100 μM octreotide for 30 min, and then treated with conjugate for 2 hours, and further incubated for 70 hours. Conjugate starting dose was 20 μM and three fold serial dilutions were done for a total of ten points. After 2 hours of treatment, cells were spun down, the drug containing media was removed, and fresh complete medium was added and used to resuspend the cells, which were spun again. After removal of the wash media, the cells were resuspended in complete medium, and then transferred into white walled, flat bottomed 96 well plates. […] Proliferation was measured using CellTiter Glo reagent using the standard protocol (Promega) and a Glomax multi+ detection system (Promega). Percent proliferation inhibition was calculated using the following formula: % inhibition=(control−treatment)/control*100. Control is defined as vehicle alone. IC50 curves were generated using the nonlinear regression analysis (four parameter) with GraphPad Prism 6.

[2] = test system: NCI-H69 SCLC tumors; test: H69 tumor DM-1 levels by LC/MS-MS; assay type: in vivo, mice; details: 1 mg/kg; 24 hour time point
Description: To examine the ability of conjugates of the present invention to accumulate in tumors, a murine cancer model was used. All mice were treated in accordance with the OLAW Public Health Service Policy on Human Care and Use of Laboratory Animals and the ILAR Guide for the Care and Use of Laboratory Animals. All in vivo studies were conducted following the protocols approved by the Blend Therapeutics Institutional Animal Care and Use Committee. Animals were inoculated with 2.5×10^6 NCI-H69 SCLC (small cell lung cancer) cells in 1:1 RPMI 1640 (Invitrogen, Carlsbad, Calif.)/Matrigel® (BD Biosciences, San Jose, Calif.) via subcutaneous injection to the right flank. Tumors were allowed to reach an approximate volume of ˜500 mm3. Animals were then randomized into treatment groups of 3 animals per time point and were dosed at 1 mg/kg (10% propylene glycol in water for injection for free conjugates, or 10% sucrose for nanoparticles), or 0.4 mg/kg for DM-1 (10% propylene glycol in water for injection). The 24 hour time point was used as a benchmark across conjugates.
Tumor DM-1 levels were determined by liquid chromatography mass spectrometry (LC/MS-MS). Four volumes of 5 mM 6-maleimidohexanoic acid to 1 part tumor v/w was added and homogenized for about 10-15 seconds with a handheld homogenizer. 10 μL of 500 mM Tris(2-carboxyethyl)phosphine was added to 100 uL of tumor homogenate, mixed well and incubated at room temperature for about 5-15 min. 200-300 uL of acetonitrile was used to precipitate proteins in tumor homogenate, samples were centrifuged for 5 min, and supernatant was injected onto LC/MS-MS system for DM-1 analysis.

[3] = 2 hours treatment, 70 hours further incubation, read-out: H524 IC50
[4] = read-out: H524 IC50+ 100 uM octreotide, 100 μM octreotide for 30 min before conjugate

COc1cc2cc(c1Cl)N(C)C(=O)C[C@H](OC(=O)[C@H](C)N(C)C(=O)CCSC1CC(=O)N(CCCNC(=O)CC[C@H](NC(=O)[C@@H]3CSSC[C@H](NC(=O)[C@H](N)Cc4ccccc4)C(=O)N[C@@H](Cc4ccc(O)cc4)C(=O)N[C@H](Cc4c[nH]c5ccccc45)C(=O)N[C@@H](CCCCN)C(=O)N[C@@H]([C@@H](C)O)C(=O)N3)C(=O)NCCCN3C(=O)CC(SCCC(=O)N(C)[C@@H](C)C(=O)O[C@H]4CC(=O)N(C)c5cc(cc(OC)c5Cl)C/C(C)=C/C=C/[C@@H](OC)[C@@]5(O)C[C@H](OC(=O)N5)[C@@H](C)[C@@H]5O[C@@]45C)C3=O)C1=O)[C@]1(C)O[C@H]1[C@H](C)[C@@H]1C[C@@](O)(NC(=O)O1)[C@H](OC)/C=C/C=C(\C)C2 (single isomer, unassigned) [Conjugate 53]
IC50 [1, 3]: 42 nM
IC50 [1, 4]: 175 nM

COc1cc2cc(c1Cl)N(C)C(=O)C[C@H](OC(=O)[C@H](C)N(C)C(=O)CCSSC(C)CCN[C@H](Cc1ccccc1)C(=O)N[C@H]1CSSC[C@@H](C(=O)N[C@H](CO)[C@@H](C)O)NC(=O)[C@H]([C@@H](C)O)NC(=O)[C@H](CCCCN)NC(=O)[C@@H](Cc3c[nH]c4ccccc34)NC(=O)[C@H](Cc3ccccc3)NC1=O)[C@]1(C)O[C@H]1[C@H](C)[C@@H]1C[C@@](O)(NC(=O)O1)[C@H](OC)/C=C/C=C(\C)C2 (single isomer, unassigned) [Conjugate 82]
IC50 [1, 3]: 148 nM
IC50 [1, 4]: 867 nM

CCCCCCCCCCC(CCN[C@H](Cc1ccccc1)C(=O)N[C@H]1CSSC[C@@H](C(=O)N[C@@H](Cc2c[nH]c3ccccc23)C(N)=O)NC(=O)[C@H](C(C)C)NC(=O)[C@H](CCCCN)NC(=O)[C@@H](Cc2c[nH]c3ccccc23)NC(=O)[C@H](Cc2ccc(O)cc2)NC1=O)SSCCC(=O)N(C)[C@@H](C)C(=O)O[C@H]1CC(=O)N(C)c2cc(cc(OC)c2Cl)C/C(C)=C/C=C/[C@@H](OC)[C@@]2(O)C[C@H](OC(=O)N2)[C@@H](C)[C@@H]2O[C@@]12C (single isomer, unassigned) [Conjugate 102]
IC50 [1, 3]: 335 nM
IC50 [1, 4]: 579 nM

COc1cc2cc(c1Cl)N(C)C(=O)C[C@H](OC(=O)[C@H](C)N(C)C(=O)CCSC1CC(=O)N(CC3CCC(C(=O)N[C@H](Cc4ccccc4)C(=O)N[C@H]4CSSC[C@@H](C(=O)N[C@H](CO)[C@@H](C)O)NC(=O)[C@H]([C@@H](C)O)NC(=O)[C@H](CCCCN)NC(=O)[C@@H](Cc5c[nH]c6ccccc56)NC(=O)[C@H](Cc5ccccc5)NC4=O)CC3)C1=O)[C@]1(C)O[C@H]1[C@H](C)[C@@H]1C[C@@](O)(NC(=O)O1)[C@H](OC)/C=C/C=C(\C)C2 (single isomer, unassigned) [Conjugate 104]
IC50 [1, 3]: 279 nM
IC50 [1, 4]: 705 nM

COc1cc2cc(c1Cl)N(C)C(=O)C[C@H](OC(=O)[C@H](C)N(C)C(=O)CCSC1CC(=O)N(CC(=O)N[C@H](Cc3ccccc3)C(=O)N[C@H]3CSSC[C@@H](C(=O)N[C@H](CO)[C@@H](C)O)NC(=O)[C@H]([C@@H](C)O)NC(=O)[C@H](CCCCN)NC(=O)[C@@H](Cc4c[nH]c5ccccc45)NC(=O)[C@H](Cc4ccccc4)NC3=O)C1=O)[C@]1(C)O[C@H]1[C@H](C)[C@@H]1C[C@@](O)(NC(=O)O1)[C@H](OC)/C=C/C=C(\C)C2 (single isomer, unassigned) [Conjugate 108]
IC50 [1, 3]: 96 nM
IC50 [1, 4]: 1280 nM

COc1cc2cc(c1Cl)N(C)C(=O)C[C@H](OC(=O)[C@H](C)N(C)C(=O)CCSSCCC(=O)N[C@H](Cc1ccccc1)C(=O)N[C@H]1CSSC[C@@H](C(=O)N[C@H](CO)[C@@H](C)O)NC(=O)[C@H]([C@@H](C)O)NC(=O)[C@H](CCCCN)NC(=O)[C@@H](Cc3c[nH]c4ccccc34)NC(=O)[C@H](Cc3ccccc3)NC1=O)[C@]1(C)O[C@H]1[C@H](C)[C@@H]1C[C@@](O)(NC(=O)O1)[C@H](OC)/C=C/C=C(\C)C2 [Conjugate 4]
IC50 [1, 3]: 367 nM
IC50 [1, 4]: 853 nM

COc1cc2cc(c1Cl)N(C)C(=O)C[C@H](OC(=O)[C@H](C)N(C)C(=O)CCSSCCC(=O)NCCOCCOCCOCCOCCOCCOCCOCCOCCC(=O)N[C@H](Cc1ccccc1)C(=O)N[C@H]1CSSC[C@@H](C(=O)N[C@H](CO)[C@@H](C)O)NC(=O)[C@H]([C@@H](C)O)NC(=O)[C@H](CCCCN)NC(=O)[C@@H](Cc3c[nH]c4ccccc34)NC(=O)[C@H](Cc3ccccc3)NC1=O)[C@]1(C)O[C@H]1[C@H](C)[C@@H]1C[C@@](O)(NC(=O)O1)[C@H](OC)/C=C/C=C(\C)C2 [Conjugate 6]
IC50 [1, 3]: 234 nM

COc1cc2cc(c1Cl)N(C)C(=O)C[C@H](OC(=O)[C@H](C)N(C)C(=O)CCSSC[C@H](N)C(=O)N[C@@H](CCCCN)C(=O)N[C@@H](CCCCN)C(=O)N[C@@H](CCCCN)C(=O)N[C@@H](CCCCN)C(=O)N[C@H](Cc1ccccc1)C(=O)N[C@H]1CSSC[C@@H](C(=O)N[C@H](CO)[C@@H](C)O)NC(=O)[C@H]([C@@H](C)O)NC(=O)[C@H](CCCCN)NC(=O)[C@@H](Cc3c[nH]c4ccccc34)NC(=O)[C@H](Cc3ccccc3)NC1=O)[C@]1(C)O[C@H]1[C@H](C)[C@@H]1C[C@@](O)(NC(=O)O1)[C@H](OC)/C=C/C=C(\C)C2 [Conjugate 7] (H-C(X1)KKKK[dF]CF[dW]KTC[Thr(ol)]; disulfide 7-12)
IC50 [1, 3]: 955 nM

COc1cc2cc(c1Cl)N(C)C(=O)C[C@H](OC(=O)[C@H](C)N(C)C(=O)CCSSCCC(=O)NCCCC[C@H]1C(=O)N[C@@H](Cc3ccc(O)cc3)C(=O)N[C@H](Cc3c[nH]c4ccccc34)C(=O)N[C@@H](CCCCN)C(=O)N[C@@H]([C@@H](C)O)C(=O)N[C@@H](Cc3ccccc3)C(=O)N1C)[C@]1(C)O[C@H]1[C@H](C)[C@@H]1C[C@@](O)(NC(=O)O1)[C@H](OC)/C=C/C=C(\C)C2 [Conjugate 10]
H69 tumor DM-1 levels [2]: 72.1 nM

COc1cc2cc(c1Cl)N(C)C(=O)C[C@H](OC(=O)[C@H](C)N(C)C(=O)CCSSCCNC(=O)CC[C@H]1C(=O)N[C@@H](Cc3ccc(O)cc3)C(=O)N[C@H](Cc3c[nH]c4ccccc34)C(=O)N[C@@H](CCCCN)C(=O)N[C@@H]([C@@H](C)O)C(=O)N[C@@H](Cc3ccccc3)C(=O)N1C)[C@]1(C)O[C@H]1[C@H](C)[C@@H]1C[C@@](O)(NC(=O)O1)[C@H](OC)/C=C/C=C(\C)C2 [Conjugate 14]
H69 tumor DM-1 levels [2]: 70.1 nM

COc1cc2cc(c1Cl)N(C)C(=O)C[C@H](OC(=O)C(C)N(C)C(=O)CCSSCC(=O)NCCNC(=O)CC[C@H]1C(=O)N[C@@H](Cc3ccc(O)cc3)C(=O)N[C@H](Cc3c[nH]c4ccccc34)C(=O)N[C@@H](CCCCN)C(=O)N[C@@H]([C@@H](C)O)C(=O)N[C@@H](Cc3ccccc3)C(=O)N1C)[C@]1(C)O[C@H]1[C@H](C)[C@@H]1C[C@@](O)(NC(=O)O1)[C@H](OC)/C=C/C=C(\C)C2 (stereo partly drawn) [Conjugate 30]
IC50 [1, 3]: 470 nM
IC50 [1, 4]: 2020 nM

COc1cc2cc(c1Cl)N(C)C(=O)C[C@H](OC(=O)[C@H](C)N(C)C(=O)CCSSCCC(=O)NCCOCCOCCOCCNC(=O)[C@@H](NC(=O)[C@@H]1CSSC[C@H](NC(=O)[C@H](N)Cc3ccccc3)C(=O)N[C@@H](Cc3ccc(O)cc3)C(=O)N[C@H](Cc3c[nH]c4ccccc34)C(=O)N[C@@H](CCCCN)C(=O)N[C@@H]([C@@H](C)O)C(=O)N1)[C@@H](C)O)[C@]1(C)O[C@H]1[C@H](C)[C@@H]1C[C@@](O)(NC(=O)O1)[C@H](OC)/C=C/C=C(\C)C2 [Conjugate 47]
IC50 [1, 3]: 2130 nM
IC50 [1, 4]: 1270 nM

COc1cc2cc(c1Cl)N(C)C(=O)C[C@H](OC(=O)[C@H](C)N(C)C(=O)CCSSCCNC(=O)[C@H](Cc1c[nH]c3ccccc13)NC(=O)[C@@H]1CSSC[C@H](NC(=O)[C@H](N)Cc3ccccc3)C(=O)N[C@@H](Cc3ccc(O)cc3)C(=O)N[C@H](Cc3c[nH]c4ccccc34)C(=O)N[C@@H](CCCCN)C(=O)N[C@@H]([C@@H](C)O)C(=O)N1)[C@]1(C)O[C@H]1[C@H](C)[C@@H]1C[C@@](O)(NC(=O)O1)[C@H](OC)/C=C/C=C(\C)C2 [Conjugate 49] (H-[dF]CY[dW]KTCW-{NH(CH2)2SS(DM1)}; disulfide 2-7)
IC50 [1, 3]: 69 nM
IC50 [1, 4]: 243 nM

COc1cc2cc(c1Cl)N(C)C(=O)C[C@H](OC(=O)[C@H](C)N(C)C(=O)CCSSCCNC(=O)N[C@H](Cc1ccccc1)C(=O)N[C@H]1CSSC[C@@H](C(=O)N[C@H](CO)[C@@H](C)O)NC(=O)[C@H]([C@@H](C)O)NC(=O)[C@H](CCCCN)NC(=O)[C@@H](Cc3c[nH]c4ccccc34)NC(=O)[C@H](Cc3ccccc3)NC1=O)[C@]1(C)O[C@H]1[C@H](C)[C@@H]1C[C@@](O)(NC(=O)O1)[C@H](OC)/C=C/C=C(\C)C2 [Conjugate 84]
IC50 [1, 3]: 76 nM
IC50 [1, 4]: 312 nM
